# Data: the supplement of paper PMC10307832
# Legend:
# Experiment in all cases: relative viability (nuclei count vs DMSO), 5 days (fraction); higher = more cells survive
# Doramapimod + AZD7762 = compound: Cc1ccc(-n2nc(C(C)(C)C)cc2NC(=O)Nc2ccc(OCCN3CCOCC3)c3ccccc23)cc1 [Doramapimod] + NC(=O)Nc1cc(-c2cccc(F)c2)sc1C(=O)N[C@H]1CCCNC1 [AZD7762] (partner 0.2 µM)
# Summary of the method: (§1)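 Medians of duplicate plates are given as relative viability. That measure is the nuclei count in treated wells divided by the count in vehicle wells. Counts were taken on 4× images of lung cancer cell lines in 1536-well plates, 5 days after pin-tool dosing the day after seeding with one drug alone or a fixed anchor-drug dose plus five library-drug doses (not always all listed) in √10 steps.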
# IPA-3 + Olaparib = compound: C1=CC=C2C(=C1)C=CC(=C2SSC3=C(C=CC4=CC=CC=C43)O)O [IPA-3] + O=C(c1cc(Cc2n[nH]c(=O)c3ccccc23)ccc1F)N1CCN(C(=O)C2CC2)CC1 [Olaparib] (partner 8 µM)
# Summary of the method: as §1
# Doramapimod + Dasatinib = compound: Cc1ccc(-n2nc(C(C)(C)C)cc2NC(=O)Nc2ccc(OCCN3CCOCC3)c3ccccc23)cc1 [Doramapimod] + Cc1nc(Nc2ncc(C(=O)Nc3c(C)cccc3Cl)s2)cc(N2CCN(CCO)CC2)n1 [Dasatinib] (partner 0.075 µM)
# Summary of the method: as §1
# Doramapimod + Pictilisib = compound: Cc1ccc(-n2nc(C(C)(C)C)cc2NC(=O)Nc2ccc(OCCN3CCOCC3)c3ccccc23)cc1 [Doramapimod] + CS(=O)(=O)N1CCN(Cc2cc3nc(-c4cccc5[nH]ncc45)nc(N4CCOCC4)c3s2)CC1 [Pictilisib] (partner 1 µM)
# Summary of the method: as §1
Cell Line,relative viability (Doramapimod + AZD7762; first compound 0.02 µM),relative viability (Doramapimod + AZD7762; first compound 0.06325 µM),relative viability (Doramapimod + AZD7762; first compound 0.2 µM),relative viability (Doramapimod + AZD7762; first compound 0.6325 µM),relative viability (Doramapimod + AZD7762; first compound 2 µM),relative viability (IPA-3 + Olaparib; first compound 0.2 µM),relative viability (IPA-3 + Olaparib; first compound 0.6325 µM),relative viability (IPA-3 + Olaparib; first compound 2 µM),relative viability (IPA-3 + Olaparib; first compound 6.325 µM),relative viability (IPA-3 + Olaparib; first compound 20 µM),relative viability (Doramapimod + Dasatinib; first compound 0.02 µM),relative viability (Doramapimod + Dasatinib; first compound 0.06325 µM),relative viability (Doramapimod + Dasatinib; first compound 0.2 µM),relative viability (Doramapimod + Dasatinib; first compound 0.6325 µM),relative viability (Doramapimod + Dasatinib; first compound 2 µM),relative viability (Doramapimod + Pictilisib; first compound 0.02 µM),relative viability (Doramapimod + Pictilisib; first compound 0.06325 µM),relative viability (Doramapimod + Pictilisib; first compound 0.2 µM),relative viability (Doramapimod + Pictilisib; first compound 0.6325 µM),relative viability (Doramapimod + Pictilisib; first compound 2 µM)
201T,0.516,0.562,0.447,0.504,0.341,0.833,0.845,0.833,0.83,0.885,0.611,0.571,0.49,0.598,0.517,0.696,0.662,0.668,0.863,0.609
A-427,0.77,0.732,0.743,–,0.561,0.73,0.723,0.697,0.607,0.662,0.728,0.768,0.733,–,0.672,0.642,0.814,0.845,–,0.676
ABC-1,0.761,0.674,0.874,0.794,0.674,0.827,0.78,0.582,0.658,0.89,0.572,0.581,0.539,0.534,0.498,0.847,0.614,0.646,0.757,0.737
BEN,0.58,0.724,0.72,0.597,0.681,1.07,1.15,1.08,1.06,1.23,0.34,0.349,0.317,0.345,0.273,0.578,0.501,0.524,0.559,0.531
CAL-12T,0.675,0.765,0.696,0.596,0.535,0.749,0.693,0.72,0.668,0.678,0.521,0.371,0.306,0.44,0.348,0.456,0.378,0.463,0.33,0.392
ChaGo-K-1,0.884,0.846,0.894,0.779,0.768,0.458,0.421,0.413,0.441,0.392,0.51,0.583,0.526,0.566,0.586,0.805,0.888,0.96,–,0.688
EKVX,0.679,0.676,0.717,0.635,0.678,0.942,0.934,0.787,0.774,0.86,0.544,0.49,0.561,0.584,0.491,0.391,0.375,0.364,0.513,0.352
EMC-BAC-2,1.07,1.16,1.07,1.07,0.965,0.5,0.468,0.447,0.459,0.412,0.451,0.279,0.297,0.419,0.283,0.542,0.468,0.51,0.741,0.513
EPLC-272H,0.209,0.209,0.254,–,0.22,1.16,0.628,0.797,0.787,0.887,0.438,0.326,0.435,0.479,0.332,0.344,0.418,0.377,0.296,0.275
H3255,1.01,1,0.972,0.956,0.762,0.605,0.555,0.565,0.518,0.562,0.296,0.56,0.414,0.314,0.351,0.485,0.495,0.466,0.545,0.414
HARA,0.341,0.235,0.397,0.536,0.213,0.8,0.802,0.971,0.694,0.676,0.194,0.274,0.277,–,0.199,0.281,0.347,0.273,0.503,0.302
HCC-15,1.35,1.17,1.23,–,1.17,0.842,0.699,0.694,0.741,0.728,0.56,0.598,0.634,–,0.595,0.728,0.684,0.8,0.359,0.689
HCC-78,0.518,0.642,0.705,0.756,0.75,0.885,0.836,0.805,0.881,0.932,0.359,0.431,0.364,0.382,0.304,0.224,0.208,0.224,0.173,0.184
HCC-366,0.387,0.271,0.33,0.34,0.213,0.532,0.345,0.321,0.34,0.277,0.605,0.549,0.548,0.548,0.458,0.15,0.137,0.131,0.125,0.136
HCC-827,0.281,0.3,0.195,0.588,0.116,0.818,0.579,0.557,0.737,0.638,0.272,0.238,0.286,0.355,0.142,1.15,0.972,1.06,0.933,0.738
HOP-62,0.629,0.676,0.585,0.647,0.651,0.848,0.401,0.47,0.392,0.274,0.618,0.705,0.633,0.843,0.594,0.761,0.714,0.742,0.463,0.438
